Measurements: patent US6855695B2, “Water-soluble SHPs as novel alkylating agents” (Vion Pharmaceuticals, Inc., priority 2003, dated 2005)
In brackets after ≈: the same amount, converted by molar mass.

Tests used:
[1] = Stability in 100% human plasma; type: in vitro ADME; settings: both sexes, 37° C.
Method: (§1) The stability of compounds 19, 20a and VNP40101M was evaluated in 100% human plasma (pooled mixed gender, BioChemed) at a final concentration of 50 μg/mL. Each drug (19 or 20a) was incubated in human plasma at 37° C. for a maximum of two hours. Aliquots of the incubation mixture were taken at various time points and extracted with acetonitrile. The extract was separated by centrifugation and analyzed directly by HPLC. In a similar manner, VNP40101M was incubated in human plasma at 37° C. for a maximum of one hour. At various time points, aliquots of the incubation mixture were removed and extracted with 0.5% H3PO4 in acetonitrile. The extract was separated by centrifugation and analyzed directly by HPLC. For comparison, the stability of each drug incubated in 50 mM Tris buffered saline (pH 7.6) instead of 100% human plasma was also determined.

[2] = tested on: HTB177 human lung carcinoma; assay: In vivo anti-tumor activity, HTB177 human lung carcinoma in nu/nu CD-1 mice
Method: (§2) The anti-tumor effects of VNP40101 M and prodrugs, including PAP-101M (19), OAP-101M (20a), PAP-Na-101M (21), and OAP-Na-101M (22a), were evaluated in both the B16-F10 murine melanoma and HTB177 human lung carcinoma models. B16-F10 melanoma cells were implanted subcutaneously (5×10^5 cells) into C57BL/6 mice, which were randomized into groups of ten immediately after tumor cell implantation (Day 0). On Day 2, mice were injected intraperitoneally with either a bolus injection of 0.1 mL PBS or drug. The treatment was carried out weekly for four consecutive weeks. Tumor measurement in three dimensions was determined once a week with the formula L×H×W/2, where L, H, and W represent length, height, and width, respectively. […] On Day 24, tumor growth was inhibited by 81% in mice treated with 80 mg/kg of VNP40101M, and by 75 to 91% in mice treated with equal molar doses of the prodrugs. […] The toxicity of these drugs in mice was mild as determined by body weight loss and animal appearance, as illustrated in FIG. 13.

[3] = tested on: alkaline phosphatase; assay: In vitro enzymatic bioconversion by alkaline phosphatase; type: in vitro ADME; settings: bovine, alkaline phosphatase from bovine intestinal mucosa; approx. 0.055 unit/mL AP in 50 mM Tris buffered saline pH 7.6, 37° C., drug approx. 50 μg/mL
Method: Each drug, at a final concentration of approximately 50 μg/mL, was incubated at 37° C. in 50 mM Tris buffered saline (pH 7.6) containing approximately 0.055 unit/mL of the phosphatase enzyme.
(§3) A control sample of each drug at a final concentration of 50 μg/mL in 50 mM Tris buffered saline (pH 7.6) without AP was also incubated at 37° C. Aliquots of each solution were taken periodically; disappearance of the tested drug was determined by HPLC.

[4] = Water-solubility at room temperature; type: physicochemical; settings: thermodynamic from solid; for solubility: determined visually by incremental addition, not at equilibrium
Method: The solubility of the newly synthesized SHPs (19, 20a, 21, and 22a) is much higher than that of VNP40101 M, as shown in Table 1.
For the free phosphoric acid 19 and 20a, an excess amount of the drug was placed in a glass vial containing 2.0 mL of water. The vials were shaken in a Glas Col rotary apparatus at room temperature for 24 hours. The suspension containing undissolved drug was centrifuged; the supernatant was carefully separated and analyzed by HPLC for drug concentration. […] Aqueous solutions of 19 and 20a were colorless. Similarly, the solubility of the sodium salts 21 and 22a was determined visually by adding incremental quantities of the drug to 2.0 mL of water in a glass vial. The vials were shaken at room temperature in a Glas Col rotary apparatus until the drug dissolved entirely. Additional fixed quantities of drug were added and the vials shaken until complete dissolution. This process was continued until no more drug dissolved. Compounds 21 and 22a are highly water-soluble. Because of limited drug supplies determination of the solubilities at equilibrium could not be obtained. Solubilities of >0.98 and >1.35 g/mL for 21 and 22a, respectively, were determined.

[5] = Pharmacokinetic study in rats, single iv bolus, HPLC-UV; type: in vivo, female Sprague-Dawley rats; settings: iv bolus 50 mg/kg
Method: Preliminary investigations of the pharmacokinetic profiles of prodrugs 19 and 20a were conducted in female Sprague-Dawley rats (10 weeks old, 250 g, Charles River). Each prodrug was administered as a single bolus intravenous (iv) injection via the jugular vein at a dose of 50 mg per kg (mpk) of body weight. Blood samples were collected on the day of dosing at the following time points: pre-dose and approximately 2, 10, 30 min, 1, 2, and 24 hr, after dosing. At each time point, approximately 0.2 mL of blood was collected in a tube containing an anticoagulant (heparin), which was immediately acidified by adding 0.005 mL of a 2.0 M citric acid solution. Then, the tube was inverted 4 to 6 times and immediately placed on ice. The blood samples were centrifuged within 30 min after blood collection at 3,000 rpm for 10-20 min at 2-8° C., and the plasma fraction was transferred to a labeled Nunc cryovial. The plasma samples were immediately frozen on dry ice and stored at −20° C. until HPLC-UV analysis. Animals were euthanized with CO2 inhalation after experiments.
Bioanalytical methods were developed to quantify these prodrugs in rat plasma using HPLC-UV at either 220 nm or 230 nm. Each plasma sample (0.1 mL) was extracted with 0.2 mL of acetonitrile. The extract was separated by centrifugation and analyzed directly by HPLC-UV. HPLC calibration standards were prepared in control rat plasma and processed as above.
Comparison to VNP101M (10 mpk of radioactive VNP101M was used in previous experiments) is difficult because of the difference in doses used in two the studies.

[6] = tested on: B16-F10 murine melanoma; assay: In vivo anti-tumor activity, B16-F10 murine melanoma implanted subcutaneously in C57BL/6 mice; settings: for Tumor growth inhibition on Day 24: ip weekly for four weeks from Day 2, 80 mg/kg VNP40101M, equal molar doses of prodrugs
Method: as §2

[7] = Aqueous stability in potassium phosphate buffers (50 mM), pH 3, 5, 7 and 9, HPLC; type: physicochemical; settings: potassium phosphate buffer 50 mM
Method: The stabilities of PAP-101M (19), OAP-101M (20a), and VNP40101M were investigated in potassium phosphate buffers (50 mM) at pH 3, 5, 7 and 9 and at room temperature (22-25° C.). One sample was prepared at each pH for each drug; the initial drug concentration in each sample was 50 μg/mL. Each sample was analyzed by HPLC repetitively, at various time points, to determine the
concentration of the respective drug. The first-order kinetic half-lives of each drug were calculated.

[8] = tested on: leukemia cells implanted intracranially; settings: Finch et al. 2001; cited from earlier work
[9] = Stability in 50 mM Tris buffered saline pH 7.6 (control without AP or plasma); type: physicochemical; settings: 50 mM Tris buffered saline pH 7.6, 37° C.
Method: as §3, §1

[10] = room temperature, Krishna et al. 2001; cited from earlier work
[11] = female, Sprague-Dawley, rat, plasma
[12] = pH 9, room temperature (22-25° C.), read-out: Half-life, pH 9 (converted)

CN(Cc1ccccc1OP(=O)(O)O)C(=O)N(N(CCCl)S(C)(=O)=O)S(C)(=O)=O [OAP-101M (20a), Phosphoric acid mono-{2-{N-[1,2-bis(methylsulfonyl)-2-(2-chloroethyl)-hydrazinylcarbonyl]-N-methylaminomethyl}-phenyl} ester]
half-life at 50 μg/mL [1]: 53.3 min
Anti-tumor effect in HTB177 human lung carcinoma (FIGS. 14 and 15) [2]: holdout promise
half-life at 50 μg/mL [3]: 29 min
solubility at 24 h [4]: 46 mg/mL (≈ 93.1 mM)
half-life ([5]; female, Sprague-Dawley, rat, plasma, iv, 50 mg/kg): ~14 min
AUC [5, 11]: 21900 ng·h/mL
Cmax [5, 11]: 239 µg/mL
clearance [5, 11]: 37.8 mL/min/kg
Vd ([5]; female, Sprague-Dawley, rat, plasma, read-out: Vss): 0.146 L/kg
Survival of tumor-bearing mice (FIG. 12) ([6]; B16-F10 tumor-bearing mice, versus other drugs): survived longer
Tumor growth inhibition on Day 24 [6]: 91%
half-life at 50 μg/mL [7, 12]: 171 days

CN(Cc1ccccc1OP(=O)([O-])[O-])C(=O)N(N(CCCl)S(C)(=O)=O)S(C)(=O)=O.[Na+].[Na+] [OAP-Na-101M (22a), Phosphoric acid 2-{N-[1,2-bis(methylsulfonyl)-2-(2-chloroethyl)-hydrazinylcarbonyl]-N-methylaminomethyl}-phenyl ester disodium salt]
Anti-tumor effect in HTB177 human lung carcinoma (FIGS. 14 and 15) [2]: holdout promise
solubility at 24 h [4]: > 1350 mg/mL
solubility [4]: > 1350 mg/mL
Tumor growth inhibition on Day 24 [6]: 89.5%

CN(Cc1ccc(OP(=O)(O)O)cc1)C(=O)N(N(CCCl)S(C)(=O)=O)S(C)(=O)=O [PAP-101M (19), Phosphoric acid mono-{4-{N-[1,2-bis(methylsulfonyl)-2-(2-chloroethyl)-hydrazinylcarbonyl]-N-methylaminomethyl}-phenyl} ester]
half-life at 50 μg/mL [1]: 34.3 min
half-life at 50 μg/mL [3]: 21.1 min
solubility at 24 h [4]: 293 mg/mL (≈ 593 mM)
Pharmacokinetic determination in rat plasma (in words) [5]: fast conversion or clearance

CN(Cc1ccc(OP(=O)([O-])[O-])cc1)C(=O)N(N(CCCl)S(C)(=O)=O)S(C)(=O)=O.[Na+].[Na+] [PAP-Na-101M (21), Phosphoric acid 4-{N-[1,2-bis(methylsulfonyl)-2-(2-chloroethyl)-hydrazinylcarbonyl]-N-methylaminomethyl}-phenyl ester disodium salt]
solubility at 24 h [4]: > 980 mg/mL
solubility [4]: > 980 mg/mL

CNC(=O)N(N(CCCl)S(C)(=O)=O)S(C)(=O)=O [VNP40101M, 1,2-Bis(methylsulfonyl)-1-(2-chloroethyl)-2-(methylaminocarbonyl) hydrazine]
half-life at 50 μg/mL [1]: 14.5 min
Log cell kill [8]: > 6.54 log cell kill
half-life at 50 μg/mL [9]: 20.5 min
Tumor growth inhibition on Day 24 [6]: 81%
Water-solubility [10]: 0.66 mg/mL
half-life at 50 μg/mL ([7]; pH 5, room temperature (22-25° C.), read-out: Half-life, pH 5 (converted)): 118 days
half-life at 50 μg/mL ([7]; pH 7, room temperature (22-25° C.), read-out: Half-life, pH 7 (converted)): 0.508 days
half-life at 50 μg/mL [7, 12]: 0.00479 days
